# Laboratory results as given in BindingDB's records for doi:10.1021/jm801475n (University of Dundee, 2009).
# Target: T1, 2-C-methyl-D-erythritol 2,4-cyclodiphosphate synthase (Escherichia coli (strain K12), UniProt P62617)
# T1 sequence (P62617 whole entry): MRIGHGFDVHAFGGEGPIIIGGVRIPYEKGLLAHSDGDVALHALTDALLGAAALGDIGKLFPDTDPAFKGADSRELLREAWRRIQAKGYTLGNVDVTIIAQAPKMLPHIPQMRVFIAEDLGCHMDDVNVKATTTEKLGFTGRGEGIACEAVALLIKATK
# Experiment: SPR Biosensor Assay
# Conditions: pH 7; 10 °C
# Experimental: An SPR assay was used to determine the binding affinities of compounds. Experiments were performed on a Biacore 3000 (Biacore, Uppsala, Sweden) instrument with CM5 research grade chips (Biacore, Uppsala, Sweden). Sensorgrams were recorded at a frequency of 2.5 Hz. EcIspF was immobilized using amine-coupling chemistry with readings between 4500 and 5500 response units were obtained. After immobilization, a 6 min injection at 5 uL min-1 of 1 M ethanolamine was used to quench excess active succinamide ester groups. SPR binding experiments with EcIspF were performed at 10 deg C in 50 mM sodium phosphate pH 7 and 2 mM MgCl2 at a flow rate of 30 uL min-1. The sensor surface was regenerated between experiments by applying the running buffer for 20 min to dissociate any ligand complex. This was followed by a further 20 min stabilization period. The 40 min total regeneration time between experiments helped to eliminate any carry-over of EcIspF bound to ligand. Each injection at a given concentration was repeated three times. Blank injections were included for each measurement series and subtracted from the data. The equilibrium (steady state) binding curves were analyzed by nonlinear regression and fit to a one-to-one Langmuir binding model. All ligands assessed by SPR were greater than 95% purity as established by high-performance liquid chromatography or combustion analysis.
smiles,measurement,value
"N[C@@H](Cc1c[nH]c2ccccc12)C(=O)NO [Tryptophanhydroxamate, 13]",Kd,1920 nM
